Reference: ChEMBL document CHEMBL1159231, “Cyathocaline, an Azafluorenone Alkaloid from Cyathocalyx zeylanica” (J Nat Prod, 1995)
Active and inactive are the calls of the source. The rule behind the calls is not given here.

How the values were obtained:
[1] = tested on: Saccharomyces cerevisiae; test: DNA damaging activity against DNA repair rad 52Y gene-deficient yeast RS 322YK mutant assessed as drug level required to produce 12 mm zone of inhibition; format: functional
[2] = tested on: Saccharomyces cerevisiae; test: DNA damaging activity against DNA repair-deficient yeast RS 321N mutant assessed as drug level required to produce 12 mm zone of inhibition; format: functional
[3] = tested on: Saccharomyces cerevisiae; test: DNA damaging activity against wild type DNA repair-proficient yeast RS 188N (RAD+) assessed as drug level required to produce 12 mm zone of inhibition; format: functional
[4] = tested on: A549; test: Cytotoxicity against human A549 cells; format: functional, cell-based
[5] = tested on: Saccharomyces cerevisiae; test: DNA damaging activity against DNA repair rad6 gene-deficient yeast RS 167N mutant; format: functional, organism-based

COc1c(O)cc2c(c1O)-c1nccc(C)c1C2=O [CYATHOCALINE]
IC12 [1]: 90 µg/mL | IC12 [2]: 87 µg/mL | IC12 [3]: > 400 µg/mL | IC50 [4]: 8.5 µM | Activity [5]: inactive
